How the values were obtained:
A375 cells = assay: A375 Cell Proliferation Assay (1); format: cell-based; conditions: Homo sapiens, A-375
Outline: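 Resazurin fluorescence (excitation 540 nm, emission 600 nm, after a further 5-6 h) gave IC50s from triplicate compound dilution series.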

[1] = biological target: B-Raf kinase (SEQ. ID NO: 2) (Homo sapiens (Human), UniProt P15056); assay: Biochemical Assay for B-Raf (2); conditions: Table J, biochemical assay (2); read-out: BRAF (2)
Procedure: Biochemical Assay for B-Raf (2)
(§1) Activity of B-Raf kinase (SEQ. ID NO: 2) was determined spectroscopically using a coupled pyruvate kinase/lactate dehydrogenase assay that continuously monitors the ATP hydrolysis-dependent oxidation of NADH (e.g., Schindler et al., Science, 2000, 289, 1938-1942). Assays were conducted in 384-well plates (25 μL final volume) using 2 nM B-Raf (Sigma), 1.5 units pyruvate kinase, 2.1 units lactate dehydrogenase, 1 mM phosphoenol pyruvate, 0.7 mM NADH, 50 nM MEK (SignalChem), and 1 mM ATP in assay buffer (100 mM Tris, pH 7.5, 15 mM MgCl2, 0.5 mM DTT, 0.1% octyl-glucoside, 0.002% (w/v) BSA, and 0.002% Triton X-100). Inhibition of B-Raf was measured by adding serial diluted test compound (final assay concentration of 1% DMSO). A decrease in absorption at 340 nm was monitored hourly for 4 h at 30° C. on a multi-mode microplate reader (BioTek). The reaction rate was calculated using the 2 to 3 h time frame. The reaction rate at each concentration of compound was converted to percent inhibition using controls (i.e., reaction with no test compound and reaction with a known inhibitor) and IC50 values were calculated by fitting a four-parameter sigmoidal curve to the data using Prism (GraphPad software).

[2] = biological target: C-Raf kinase (SEQ. ID NO: 3) (Homo sapiens (Human), UniProt P04049, Y340D/Y341D); assay: Biochemical Assay for C-Raf (2); conditions: Table J, biochemical assay (2); read-out: CRAF (2)
Sequence of C-Raf kinase (SEQ. ID NO: 3) (P04049 307-648 Y340D/Y341D): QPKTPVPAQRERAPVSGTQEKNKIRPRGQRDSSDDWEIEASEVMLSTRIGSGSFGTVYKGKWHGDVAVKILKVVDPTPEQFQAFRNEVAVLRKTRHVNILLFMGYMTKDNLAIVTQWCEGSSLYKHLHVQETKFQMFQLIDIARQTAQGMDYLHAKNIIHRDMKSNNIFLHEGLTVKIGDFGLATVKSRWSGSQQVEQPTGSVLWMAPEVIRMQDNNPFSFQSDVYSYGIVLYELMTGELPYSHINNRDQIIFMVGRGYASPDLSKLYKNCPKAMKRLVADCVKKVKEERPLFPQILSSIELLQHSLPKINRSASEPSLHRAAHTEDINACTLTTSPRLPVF
Procedure: Biochemical Assay for C-Raf (2)
as §1, with “of C-Raf” for “of B-Raf”, “NO: 3)” for “NO: 2)”, “using 3.84” for “using 2”, “nM C-Raf (Eurofins),” for “nM B-Raf (Sigma),”

H2405 cells = assay: H2405 Cell Proliferation Assay (2); format: cell-based; conditions: Homo sapiens, NCI-H2405
Procedure: H2405 Cell Proliferation Assay (2)
H2405 cells (catalog #CRL-5994) are obtained from the American Type Culture Collect (ATTC, Manassas, VA). Briefly, cells were grown in RPMI 1640 supplemented with 5% characterized fetal bovine serum (Invitrogen, Carlsbad, CA) and 1% Penicillin/Streptomycin/L-Glutamine at 37° C., 5% CO2, and 95% humidity. Cells are expanded until reaching 70-95% confluency at which point they are sub-cultured or harvested for assay use. A serial dilution of test compound is dispensed into a 384-well black clear bottom plate in triplicate. Seven hundred fifty cells are added per well in 50 μL complete growth medium in the 384-well plate. Plates are incubated for 67-72 h at 37° C., 5% CO2, and 95% humidity. At the end of the incubation, 10 μL of a 440 μM solution of resazurin (Sigma, St. Louis, MO) in PBS is added to each well of the plate and plates are incubated for an additional 5-6 h at 37° C., 5% CO2, and 95% humidity. Plates are read on a Synergy2 or equivalent reader (Biotek, Winooski VT) using an excitation of 540 nm and an emission of 600 nm. Data is analyzed using Prism software (GraphPad, San Diego, CA) to calculate IC50 values

Sequence of B-Raf kinase (SEQ. ID NO: 2) (P15056 416-766): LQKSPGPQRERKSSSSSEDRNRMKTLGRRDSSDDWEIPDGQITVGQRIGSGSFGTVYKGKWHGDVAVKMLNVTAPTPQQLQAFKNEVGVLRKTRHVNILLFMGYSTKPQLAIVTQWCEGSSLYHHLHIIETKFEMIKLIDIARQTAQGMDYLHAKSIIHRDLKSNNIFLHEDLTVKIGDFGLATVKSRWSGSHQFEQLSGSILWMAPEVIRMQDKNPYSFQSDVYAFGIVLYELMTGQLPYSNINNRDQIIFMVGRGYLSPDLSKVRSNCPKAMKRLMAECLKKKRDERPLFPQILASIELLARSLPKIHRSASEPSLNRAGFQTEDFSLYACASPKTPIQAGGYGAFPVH

| SMILES | IC50 (A375 cells) | IC50 [1] | IC50 [2] | IC50 (H2405 cells) |
| --- | --- | --- | --- | --- |
| Cc1ncc(NC(=O)c2ccnc(C(C)(C)F)c2)cc1-c1cncc(-c2ccnc(NC(=O)C3CC3)c2)c1 [Example 433] | ≤ 100 nM |  |  |  |
| Cc1ccc(NC(=O)c2ccnc(C(C)C)c2)cc1-c1cncc(-c2cc(NC(=O)C3CC3)ncn2)c1 [Example 434] | ≤ 100 nM |  |  |  |
| COC(=O)Nc1cc(-c2cncc(-c3cc(NC(=O)c4ccnc(C(C)(C)F)c4)ccc3C)c2)ccn1 [Example 435] | ≤ 100 nM |  |  |  |
| Cc1ccc(NC(=O)c2cc(C3CC3)n(C)n2)cc1-c1nccc(-c2ccnc(NC(=O)C3CC3)c2)n1 [Example 436] | 100 to 500 nM |  |  |  |
| CNC(=O)c1cc(-c2cc(-c3cc(NC(=O)c4ccnc(C(C)(C)C#N)c4)ccc3OC)ccn2)ccn1 [Example 437] | 1000 to 10000 nM |  |  |  |
| COc1ccc(NC(=O)c2ccnc(C(C)(C)C#N)c2)cc1-c1cccc(-c2cc(NC(=O)C3CC3)ncn2)c1 [Example 438] | ≤ 100 nM |  |  |  |
| CNC(=O)c1cc(-c2cncc(-c3cc(NC(=O)c4ccnc(C(C)(F)F)c4)ccc3C)c2)ncn1 [Example 439] |  | ≤ 100 nM | ≤ 100 nM | 100 to 500 nM |
| CNC(=O)c1cc(-c2cncc(-c3cc(NC(=O)c4ccnc(C(C)(F)F)c4)ccc3C)c2)ccn1 [Example 440] |  | ≤ 100 nM | ≤ 100 nM | 100 to 500 nM |
| CNC(=O)c1cc(-c2cc(-c3cc(NC(=O)c4ccnc(C(C)(F)F)c4)ccc3C)ccn2)ccn1 [Example 441] |  | ≤ 100 nM | ≤ 100 nM | ≤ 100 nM |
| CNC(=O)c1cc(-c2cncc(-c3cc(NC(=O)c4ccnc(C(C)(C)C#N)c4)ccc3C)c2)ccn1 [Example 442] |  | ≤ 100 nM | ≤ 100 nM | ≤ 100 nM |
| CNC(=O)c1cc(-c2cc(-c3cc(NC(=O)c4ccnc(C(C)C)c4)ccc3C)ccn2)ccn1 [Example 443] |  | ≤ 100 nM | ≤ 100 nM | ≤ 100 nM |
| CNC(=O)c1cc(-c2cc(-c3cc(NC(=O)c4ccnc(C(C)(C)F)c4)cnc3C)ccn2)ccn1 [Example 444] |  | 100 to 500 nM | ≤ 100 nM |  |
| CNC(=O)c1cc(-c2cncc(-c3cc(NC(=O)c4ccnc(C(C)C)c4)ccc3C)c2)ccn1 [Example 445] |  | ≤ 100 nM | ≤ 100 nM | ≤ 100 nM |
| CNC(=O)c1cc(-c2cncc(-c3cc(NC(=O)c4ccnc(C(C)C)c4)ccc3C)c2)ncn1 [Example 446] |  | ≤ 100 nM | ≤ 100 nM | 100 to 500 nM |
| Cc1ccc(NC(=O)c2ccnc(C(C)(C)F)c2)cc1-c1ccnc(-c2ccnc(C#N)c2)c1 [Example 447] |  | 100 to 500 nM | ≤ 100 nM |  |
| Cc1ccc(NC(=O)c2ccnc(C(C)(C)F)c2)cc1-c1ccnc(-c2ccnc(C(=O)NCCO)c2)c1 [Example 448] |  | 100 to 500 nM | ≤ 100 nM | 100 to 500 nM |
| CNC(=O)c1cc(-c2cc(-c3cc(NC(=O)c4ccnc(C(C)(C)F)c4)ccc3C)cc(OCCO)n2)ccn1 [Example 449] |  | 100 to 500 nM | ≤ 100 nM | ≤ 100 nM |
| Cc1ccc(NC(=O)c2ccnc(C(C)(C)F)c2)cc1-c1ccnc(-c2ccnc(C(=O)NC3CN(C)C3)c2)c1 [Example 450] |  | 100 to 500 nM | 100 to 500 nM | 100 to 500 nM |
| Cc1ccc(NC(=O)c2ccnc(C(C)(C)F)c2)cc1-c1ccnc(-c2ccnc(C(=O)NCC#N)c2)c1 [Example 451] |  | ≤ 100 nM | ≤ 100 nM |  |

| SMILES | IC50 (A375 cells) | IC50 [1] | IC50 [2] | IC50 (H2405 cells) |
| --- | --- | --- | --- | --- |
| CNC(=N)c1cc(-c2cc(-c3cc(NC(=O)c4ccnc(C(C)(C)F)c4)ccc3C)ccn2)ccn1 [Example 452] |  | ≤ 100 nM | ≤ 100 nM | 100 to 500 nM |
| Cc1ccc(NC(=O)c2ccnc(C(C)(C)F)c2)cc1-c1ccnc(-c2ccnc(C(=O)NCCN(C)C)c2)c1 [Example 453] |  | ≤ 100 nM | ≤ 100 nM | 100 to 500 nM |
| Cc1ncc(NC(=O)c2ccnc(C(C)(C)F)c2)cc1-c1ccnc(-c2ccnc(NC(=O)C3CC3)c2)c1 [Example 454] |  | ≤ 100 nM | ≤ 100 nM | ≤ 100 nM |
| Cc1ccc(NC(=O)c2ccnc(C(C)(C)F)c2)cc1-c1ccnc(-c2ccnc(NC(=O)C3CC3)c2)c1 [Example 455] |  | ≤ 100 nM | ≤ 100 nM | ≤ 100 nM |
| Cc1ccc(NC(=O)c2ccnc(C(C)(C)C#N)c2)cc1-c1ccnc(-c2ccnc(NC(=O)C3CC3)c2)c1 [Example 456] |  | ≤ 100 nM | ≤ 100 nM | ≤ 100 nM |
| Cc1ccc(NC(=O)c2ccnc(C3(C#N)CC3)c2)cc1-c1ccnc(-c2ccnc(NC(=O)C3CC3)c2)c1 [Example 457] |  | ≤ 100 nM | ≤ 100 nM | ≤ 100 nM |
| Cc1ccc(NC(=O)c2ccnc(C3CC3)c2)cc1-c1ccnc(-c2ccnc(NC(=O)C3CC3)c2)c1 [Example 458] |  | ≤ 100 nM | ≤ 100 nM | ≤ 100 nM |
| Cc1ccc(NC(=O)c2ccnc(C(C)(F)F)c2)cc1-c1ccnc(-c2ccnc(NC(=O)C3CC3)c2)c1 [Example 459] |  | ≤ 100 nM | ≤ 100 nM | ≤ 100 nM |
| CNC(=O)c1cc(-c2cc(-c3cc(NC(=O)c4ccnc(C5CC5)c4)ccc3C)ccn2)ccn1 [Example 460] |  | ≤ 100 nM | ≤ 100 nM | 100 to 500 nM |
| Cc1ncc(NC(=O)c2ccnc(C3(C#N)CC3)c2)cc1-c1ccnc(-c2ccnc(NC(=O)C3CC3)c2)c1 [Example 461] |  | ≤ 100 nM | ≤ 100 nM | ≤ 100 nM |
| CNC(=O)c1cc(-c2cc(-c3cc(NC(=O)c4ccnc(C5CC5)c4)cnc3C)ccn2)ccn1 [Example 462] |  | 100 to 500 nM | ≤ 100 nM | 500 to 1000 nM |
| CNC(=O)c1cc(-c2cc(-c3cc(NC(=O)c4ccnc(C(C)(F)F)c4)cnc3C)ccn2)ccn1 [Example 463] |  | 100 to 500 nM | ≤ 100 nM |  |
| CNC(=O)c1cc(-c2cc(-c3cc(NC(=O)c4ccnc(C5(C#N)CC5)c4)cnc3C)ccn2)ccn1 [Example 464] |  | 100 to 500 nM | ≤ 100 nM |  |
| CNC(=O)c1cc(-c2cc(-c3cc(NC(=O)c4ccnc(C(C)C)c4)cnc3C)ccn2)ccn1 [Example 465] |  | 100 to 500 nM | ≤ 100 nM | 100 to 500 nM |
| Cc1ncc(NC(=O)c2ccnc(C(C)(F)F)c2)cc1-c1ccnc(-c2ccnc(NC(=O)C3CC3)c2)c1 [Example 466] |  | ≤ 100 nM | ≤ 100 nM | 100 to 500 nM |
| Cc1ccc(NC(=O)c2ccnc(C(C)C)c2)cc1-c1ccnc(-c2ccnc(NC(=O)C3CC3)c2)c1 [Example 467] |  | ≤ 100 nM | ≤ 100 nM | ≤ 100 nM |
| Cc1ncc(NC(=O)c2ccnc(C(C)C)c2)cc1-c1ccnc(-c2ccnc(NC(=O)C3CC3)c2)c1 [Example 468] |  | ≤ 100 nM | ≤ 100 nM | ≤ 100 nM |
| CNC(=O)c1cc(-c2cc(-c3cc(NC(=O)c4ccnc(C(C)(C)F)c4)ccc3C)c(F)cn2)ccn1 [Example 469] |  | ≤ 100 nM | ≤ 100 nM | 100 to 500 nM |
| CNC(=O)c1cc(-c2cc(-c3cc(NC(=O)c4ccnc(C(C)(C)F)c4)ccc3C)cc(C)n2)ccn1 [Example 470] |  | 100 to 500 nM | ≤ 100 nM | ≤ 100 nM |
